Patent publication US12643913B2, “Mcl-1 inhibitor formulations” (AMGEN INC., priority 2020, dated 2026)
Entries after “also recorded” stand apart in the source; their conditions may differ.

Key:
[1] = Moisture sorption profile (DVS); assay type: physicochemical; conditions: by 95% RH; listed as amorphous AMG 397
Protocol: Moisture Sorption: Moisture sorption data was collected using a Surface Measurement Systems DVSAdvantage instrument. Equilibrium criteria were set at ±0.001% weight change in 10 minutes with a maximum equilibrium time of 380 minutes.
Moisture Sorption: Moisture sorption data was collected using a Surface Measurement Systems DVSAdvantage instrument. Equilibrium criteria were set at ±0.001% weight change in 10 minutes with a maximum equilibrium time of 360 minutes.

[2] = 2-stage micro-dissolution (faSSGF then faSSIF), amorphous vs crystalline hydrate; assay type: physicochemical
Protocol: A 2-stage micro-dissolution experiment was performed to compare the dissolution of the amorphous AMG 397 drug substance to the crystalline hydrate form of AMG 397, as shown in FIG. 5. […] Upon dilution with fasted simulated intestinal fluid (faSSIF, pH 6.0 after dilution) the concentration of the amorphous material was seen to drop before increasing over the next 10 minutes and reaching a plateau. No precipitation of the amorphous material was observed, and it maintained at 5× higher concentration than the crystalline hydrate form of AMG 397 for the duration of the experiment. […] Unlike the amorphous material no further dissolution occurred once the media was switched to faSSIF.

[3] = Pharmacokinetics after oral gavage to male beagle dogs with different pre-treatments (Amgen study 150528); assay type: in vivo; conditions: 3 mg/kg PO; for AUCt / Cl/F / Cmax / Tmax / T½: male beagle dogs
Protocol: The pharmacokinetics of AMG 397 were assessed following oral administration to male beagle dogs as either a suspension of the crystalline hydrate form of AMG 397 or an amorphous suspension in 2% HPMC, 0.01% Tween 80. The full protocol is described in Amgen study number 150528. The goal of this study was to determine if the amorphous material would lead to increases in bioavailability and if variability in dosing could be reduced. In addition, oncology patients could be receiving acid-reducing agents as co-medication, so it is important to determine if exposure is reduced with elevated stomach pH and if an amorphous formulation of AMG 397 could overcome the drug-drug interaction (DDI). For the studies below, Form 1 is the crystalline hydrate form of AMG 397 and amorphous is the amorphous form of AMG 397.
(§1) Briefly, during each phase five male beagle dogs were assigned to each group of the study. All animals were fasted for at least eight hours prior to dosing and through the first four hours of blood sample collection for each phase. Food was returned within 30 minutes following collection of the last blood sample at the four-hour collection interval. Each animal in Phase 1, received a single oral (PO) gavage dose of the appropriate test article formulation as outlined in the study design Table 6. Oral gavage dosing formulations were continuously stirred throughout dosing. The gavage tube was rinsed with approximately 10 mL of tap water following dosing (prior to removal of the gavage tube). Following each study phase a 7-day washout period was allowed prior to the dosing of the next phase. The same five dogs were assigned to either group 1 or group 2 formulations for the duration of the study.
(§2) Test Article Administration: A total of 10 male beagle dogs were initially assigned to study. All animals were fasted for at least eight hours prior to dosing and through the first four hours of blood sample collection for each phase, where applicable (food will be returned within 30 minutes following collection of the last blood sample at the four hour collection interval, where applicable). Total fasting time […] 24 hours.
(§3) Each animal in Phase 1, Groups 1 and 2 received a single oral (PO) gavage dose of the appropriate test article formulation as outlined in the following study design table. Oral gavage dosing formulations was continuously stirred throughout dosing. The gavage tube was rinsed with approximately 10 mL of tap water following dosing (prior to removal of the gavage tube). No pre-treatment will be required for Phase 1.
as §3, with “After a 7-day washout period, each” for “Each”, “2,” for “1,”, “land” for “1 and”, “were” for “was”, “Two hours prior to dosing, each animal received two 20 mg (40 mg total) oral tablets of famotidine followed by a 10 mL dose of deionized water.” for “No pre-treatment will be required for Phase 1.”
After another 7-day washout period, each animal in Phase 3, Groups land 2 received a single oral (PO) gavage dose of the appropriate test article formulation as outlined in the following study design table. Oral gavage dosing formulations were continuously stirred throughout dosing. The gavage tube was rinsed with approximately 10 mL of tap water following dosing (prior to removal of the gavage tube). Thirty minutes prior to dosing, each animal received an intramuscular dose of pentagastrin in phosphate buffered saline at a dose level of 0.006 mg/kg and a dose volume of 0.05 mL/kg.
After a final 7-day washout period, each animal in Phase 4, Groups 1 and 2 received a single oral (PO) gavage dose of the appropriate test article formulation as outlined in the following study design table. Oral gavage dosing formulations were continuously stirred throughout dosing. […]

[4] = Clinical observations in the beagle dog PK study; assay type: in vivo, male beagle dogs; conditions: 3 mg/kg PO, individual dogs
Protocol: as §1, §2
Different pre-treatments were assigned for each phase of the study to mimic several scenarios: • 1. No pre-treatment was administered for Phase 1 as it served as a control. • 2. During Phase 2, at 1 hour 54 minutes to 1 hour 58 minutes prior to dose administration, all animals were pretreated with two 20 mg (40 mg total) oral tablets of famotidine followed by a 10 mL dose of deionized water. […] This was used to determine the role of stomach pH on exposure. • 3. During Phases 3 and 4, at 30 to 38 minutes prior to dose administration, all animals were pretreated with a single intramuscular dose of pentagastrin in phosphate buffered saline, pH 7.4, at a dose level of 0.006 mg/kg and a dose volume of 0.05 mL/kg. The pentagastrin dose was used to ensure that the dogs stomach pH was normalized to pH ˜2.0 as it is known that the dogs stomach pH is often higher than that of humans under resting conditions. • 4. In addition, […], at 1 hour 3 minutes to 1 hour 6 minutes prior to dose administration and 4 hours 10 minutes to 4 hours 11 minutes following dose by oral gavage at a dose level of 3 mg/kg and a dose volume of 4 mL/kg. This final phase was used to study if P-gp played a role in absorption.

[5] = Phase 2, famotidine pre-treatment (stomach pH ~6.5)
[6] = Phase 3, pentagastrin pre-treatment (stomach pH ~2.0)
[7] = Phase 4, pentagastrin pre-treatment + P-gp inhibitor GF120918

CO[C@]1(CN2CCN3CCCC[C@@H]3C2)/C=C/C[C@H](C)[C@@H](C)S(=O)(=O)NC(=O)c2ccc3c(c2)N(C[C@@H]2CC[C@H]21)C[C@@]1(CCCc2cc(Cl)ccc21)CO3 [AMG 397 Amorphous]
Moisture sorption weight gain [1]: ~6.4%
Concentration relative to the crystalline hydrate form ([2]; after dilution with faSSIF (pH 6.0), maintained for the duration of the experiment): 5 ×
Concentration relative to the crystalline hydrate form ([2]; simulated gastric fluid (faSSGF), after 20 minutes): ~8 ×
AUCt ([3]; Phase 1, no pre-treatment): 17.3 µM·h
Cl/F ([3]; Phase 1, no pre-treatment): 6.7 mL/min/kg
Cmax ([3]; Phase 1, no pre-treatment): 790 nM
Tmax ([3]; Phase 1, no pre-treatment): 3.1 h
T½ ([3]; Phase 1, no pre-treatment): 18.4 h
AUCt [3, 5]: 21.1 µM·h
Cl/F [3, 5]: 3.67 mL/min/kg
Cmax [3, 5]: 900 nM
Tmax [3, 5]: 8.1 h
T½ [3, 5]: 19.7 h
AUCt [3, 6]: 18 µM·h
Cl/F [3, 6]: 4.33 mL/min/kg
Cmax [3, 6]: 780 nM
Tmax [3, 6]: 10.4 h
T½ [3, 6]: 18.3 h
AUCt [3, 7]: 26.0 µM·h
Cl/F [3, 7]: 4.33 mL/min/kg
Cmax [3, 7]: 950 nM
Tmax [3, 7]: 12.4 h
T½ [3, 7]: 16.5 h
Effect of stomach pH on exposure ([3]; beagle dogs): not affected by stomach pH
Bioavailability relative to the crystalline hydrate form ([3]; stomach pH elevated, beagle dogs): 3.4 fold
Bioavailability relative to the crystalline hydrate form ([3]; stomach pH low, beagle dogs): 1.6 fold
Positive clinical findings (observation) ([4]; Phase 1 (Days 1 to 7), no pre-treatment): Yellow, frothy vomitus
Positive clinical findings (observation) ([4]; Phase 2 (Days 8 to 14), famotidine pre-treatment): White, frothy vomitus; also recorded: Soft feces; also recorded: Yellow, frothy vomitus
Positive clinical findings (observation) ([4]; Phase 3 (Days 15 to 21), pentagastrin pre-treatment): Salivation; also recorded: White, frothy vomitus; also recorded: Yellow, frothy vomitus
Positive clinical findings (observation) ([4]; Phase 4 (Days 22 to 24), pentagastrin pre-treatment and inhibitor GF120918 pre- and post-treatment): Small amount of white,
Positive clinical findings (observation) ([4]; Phase 5 (Days 71 to 73), inhibitor GF120918 pre- and post-treatment, 3 mg/kg): Salivation; also recorded: Watery feces; also recorded: Yellow, frothy vomitus; also recorded: Yellow, discolored feces; also recorded: Mucoid feces; also recorded: Tan, frothy vomitus
